Experimental data as given in patent US8975245B2, “Anaesthetic formulation” (Drawbridge Pharmaceuticals Pty Ltd, priority 2010, dated 2015).

Legend:
[1] = for time of continuous stirring until it went into solution: 10 mg/ml in 13% w/v sulfobutyl ether β-cyclodextrin in 0.9% saline; for dissolution at a concentration of 10 mg/ml: 13% w/v sulfobutyl ether β-cyclodextrin in 0.9% saline
rats = assay: Effect of Captisol premedication on the death rate of Althesin
[2] = SBECD7 (13% solution) premed 5.25 mls/kg 60 s before Althesin @ 16 x AD95 (52.5 mg/kg alphaxalone iv), 10 rats

Row | Molecule | time of continuous stirring until it went into solution [1] | dissolution at a concentration of 10 mg/ml [1] | n did not die (rats; [2]) | n died (rats; [2]) | effect on mortality caused by alphaxalone as Althesin (rats; premedication 60 s before 52.5 mg/kg alphaxalone as Althesin)
1 | CC(=O)[C@H]1CC[C@H]2[C@@H]3CC[C@@H]4C[C@H](O)CC[C@]4(C)[C@H]3CC[C@]12C [pregnanolone] | 4 h | dissolved incompletely |  |  | 
2 | (7) sulfobutyl ether β-cyclodextrin [SBECD7] |  |  | 8 | 2 | statistically and clinically significant reduction in the mortality
3 | C[C@]12CC[C@@H](O)C[C@@H]1CC[C@H]1[C@@H]3CC[C@H](C(=O)CO)[C@@]3(C)CC(=O)[C@@H]12 [alphadolone] | 4 h | dissolved completely |  |  | 
